Reference: patent publication EP2628479A1, “Cosmetic use of climbazol” (Henkel AG&Co. KGAA, priority 2011, dated 2013)

Test system: Co-Kultur-System
Assay: Collagen neosynthesis in co-culture system (2D fibroblast culture with 3D epidermis model insert), P1 NP secreted into the medium
Format: cell-based
Conditions: unbehandelt = 107
Description: Zum Nachweis der Kollagen-Neusynthese wurde ein Co-Kultur-System verwendet, das aus einer zweidimensionalen Fibroblasten-Kultur besteht, auf die in einem Insert ein dreidimensionales Epidermismodell aufgesetzt wurde. Über das Nährmedium kann ein Stoffaustausch zwischen den Fibroblasten und den Keratinocyten des Epidermismodells erfolgen.
Als Kontrollen für die Syntheseinduktion wurden Retinsäure und Retinol eingesetzt.

## CC(C)(C)C(=O)C(Oc1ccc(Cl)cc1)n1ccnc1 (stereo not drawn) [Climbazol, Imidazolyl-1-(4-chlorophenoxy)-3,3-dimethylbutane-2-one]
Climbazol 0,005%
  P1 NP: 135 µg/mL

## CC1=C(/C=C/C(C)=C/C=C/C(C)=C/CO)C(C)(C)CCC1 [Retinol]
Retinol 5µM
  P1 NP: 146 µg/mL

## CC1=C(/C=C/C(C)=C/C=C/C(C)=C/C(=O)O)C(C)(C)CCC1 [Retinsäure]
Retinsäure 5µM
  P1 NP: 200 µg/mL
